Laboratory results published in ChEMBL document CHEMBL4507270 (2021).
Activity calls are given as the source filed them. No cut-off for these calls is given here.

Experiments:
[1] = target: Serine/threonine-protein kinase PknB (Mycobacterium tuberculosis) (UniProt P9WI81)
[2] = target: Serine/threonine-protein kinase ULK3 (Homo sapiens) (UniProt Q6PHR2)
[3] = target: Mitogen-activated protein kinase kinase kinase kinase 5 (Homo sapiens) (UniProt Q9Y4K4)
[4] = tested on: Phosphatidylinositol 4,5-bisphosphate 3-kinase catalytic subunit alpha isoform (Homo sapiens), P42336 [H1047L]
[5] = target: Non-receptor tyrosine-protein kinase TYK2 (Homo sapiens) (UniProt P29597)
[6] = target: Aurora kinase A (Homo sapiens) (UniProt O14965)
[7] = target: Tyrosine-protein kinase ITK/TSK (Homo sapiens) (UniProt Q08881)
[8] = target: Glycogen synthase kinase-3 beta (Homo sapiens) (UniProt P49841)
[9] = target: Serine/threonine-protein kinase tousled-like 1 (Homo sapiens) (UniProt Q9UKI8)
[10] = target: Cyclin-dependent kinase 19 (Homo sapiens) (UniProt Q9BWU1)
[11] = tested on: Phosphatidylinositol 4,5-bisphosphate 3-kinase catalytic subunit alpha isoform (Homo sapiens), P42336 [C420R]
[12] = tested on: Hepatocyte growth factor receptor (Homo sapiens), P08581 [M1250T]
[13] = target: RAC-gamma serine/threonine-protein kinase (Homo sapiens) (UniProt Q9Y243)
[14] = target: Receptor-interacting serine/threonine-protein kinase 2 (Homo sapiens) (UniProt O43353)
[15] = target: 5-hydroxytryptamine receptor 5A (Homo sapiens) (UniProt P47898); details: Compound concentration 10.0 uM
[16] = target: Dual specificity protein kinase TTK (Homo sapiens) (UniProt P33981)
Dual specificity protein kinase TTK (Homo sapiens), sequence (P33981 whole entry): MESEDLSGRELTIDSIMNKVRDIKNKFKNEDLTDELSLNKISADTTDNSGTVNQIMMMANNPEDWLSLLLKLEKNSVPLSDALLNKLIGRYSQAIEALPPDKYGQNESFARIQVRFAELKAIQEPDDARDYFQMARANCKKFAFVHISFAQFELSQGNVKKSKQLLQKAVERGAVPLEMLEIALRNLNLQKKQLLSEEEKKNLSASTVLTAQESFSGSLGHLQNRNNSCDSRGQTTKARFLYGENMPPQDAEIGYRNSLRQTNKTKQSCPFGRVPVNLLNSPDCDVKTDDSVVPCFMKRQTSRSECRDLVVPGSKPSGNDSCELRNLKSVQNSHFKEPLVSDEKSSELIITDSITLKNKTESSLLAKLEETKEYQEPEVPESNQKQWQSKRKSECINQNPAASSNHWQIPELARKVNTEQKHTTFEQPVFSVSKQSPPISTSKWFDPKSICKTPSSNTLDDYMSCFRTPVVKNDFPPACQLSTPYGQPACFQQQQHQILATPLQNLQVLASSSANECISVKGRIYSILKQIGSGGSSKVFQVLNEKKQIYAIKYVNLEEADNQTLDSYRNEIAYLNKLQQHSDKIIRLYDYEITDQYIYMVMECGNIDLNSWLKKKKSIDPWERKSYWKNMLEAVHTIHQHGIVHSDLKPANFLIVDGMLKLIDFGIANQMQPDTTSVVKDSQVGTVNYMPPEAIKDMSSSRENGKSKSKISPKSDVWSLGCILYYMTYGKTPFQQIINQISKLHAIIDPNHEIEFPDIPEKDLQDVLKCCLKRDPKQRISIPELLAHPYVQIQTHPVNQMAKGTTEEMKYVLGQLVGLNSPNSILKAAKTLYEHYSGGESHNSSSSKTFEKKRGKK

[17] = target: Mitogen-activated protein kinase kinase kinase kinase 2 (Homo sapiens) (UniProt Q12851)
[18] = target: 1-phosphatidylinositol 3-phosphate 5-kinase (Homo sapiens) (UniProt Q9Y2I7)
[19] = target: Uncharacterized serine/threonine-protein kinase SBK3 (Homo sapiens) (UniProt P0C264)
Uncharacterized serine/threonine-protein kinase SBK3 (Homo sapiens), sequence (P0C264 whole entry): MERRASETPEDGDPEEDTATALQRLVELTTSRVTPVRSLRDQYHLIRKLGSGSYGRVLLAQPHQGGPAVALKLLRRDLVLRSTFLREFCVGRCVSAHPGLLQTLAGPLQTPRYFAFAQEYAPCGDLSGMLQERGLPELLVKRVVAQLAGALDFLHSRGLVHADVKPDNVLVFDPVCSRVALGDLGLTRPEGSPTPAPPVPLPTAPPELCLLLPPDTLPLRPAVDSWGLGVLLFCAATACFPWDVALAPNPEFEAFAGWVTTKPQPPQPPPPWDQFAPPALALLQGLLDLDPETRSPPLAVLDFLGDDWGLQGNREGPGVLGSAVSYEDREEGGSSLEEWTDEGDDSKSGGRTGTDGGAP

[20] = tested on: Receptor-type tyrosine-protein kinase FLT3 (Homo sapiens), P36888 [D835Y]
[21] = target: Testis-specific serine/threonine-protein kinase 1 (Homo sapiens) (UniProt Q9BXA7)
[22] = tested on: ALK tyrosine kinase receptor (Homo sapiens), Q9UM73 [L1196M]
[23] = target: Tyrosine-protein kinase JAK2 (Homo sapiens) (UniProt O60674)
[24] = target: NUAK family SNF1-like kinase 1 (Homo sapiens) (UniProt O60285)
[25] = target: Insulin receptor-related protein (Homo sapiens) (UniProt P14616)
[26] = target: Sigma non-opioid intracellular receptor 1 (Homo sapiens) (UniProt Q99720); details: Compound concentration 10.0 uM
[27] = target: Serine/threonine-protein kinase Nek11 (Homo sapiens) (UniProt Q8NG66)
[28] = target: Serine/threonine-protein kinase PLK4 (Homo sapiens) (UniProt O00444)
[29] = target: Kappa-type opioid receptor (Homo sapiens, UniProt P41145); details: Compound concentration 10.0 uM
[30] = target: Serine/threonine-protein kinase Nek10 (Homo sapiens) (UniProt Q6ZWH5)
[31] = target: Peripheral plasma membrane protein CASK (Homo sapiens) (UniProt O14936)
[32] = target: 5-hydroxytryptamine receptor 7 (Homo sapiens) (UniProt P34969); details: Compound concentration 10.0 uM
[33] = target: Myosin-IIIa (Homo sapiens) (UniProt Q8NEV4)
[34] = target: Serine/threonine-protein kinase PAK 1 (Homo sapiens) (UniProt Q13153)
[35] = tested on: Proto-oncogene tyrosine-protein kinase receptor Ret (Homo sapiens), P07949 [M918T]
[36] = target: Mitogen-activated protein kinase 9 (Homo sapiens) (UniProt P45984)
[37] = target: Dual specificity testis-specific protein kinase 1 (Homo sapiens) (UniProt Q15569)
Dual specificity testis-specific protein kinase 1 (Homo sapiens), sequence (Q15569 whole entry, looked up): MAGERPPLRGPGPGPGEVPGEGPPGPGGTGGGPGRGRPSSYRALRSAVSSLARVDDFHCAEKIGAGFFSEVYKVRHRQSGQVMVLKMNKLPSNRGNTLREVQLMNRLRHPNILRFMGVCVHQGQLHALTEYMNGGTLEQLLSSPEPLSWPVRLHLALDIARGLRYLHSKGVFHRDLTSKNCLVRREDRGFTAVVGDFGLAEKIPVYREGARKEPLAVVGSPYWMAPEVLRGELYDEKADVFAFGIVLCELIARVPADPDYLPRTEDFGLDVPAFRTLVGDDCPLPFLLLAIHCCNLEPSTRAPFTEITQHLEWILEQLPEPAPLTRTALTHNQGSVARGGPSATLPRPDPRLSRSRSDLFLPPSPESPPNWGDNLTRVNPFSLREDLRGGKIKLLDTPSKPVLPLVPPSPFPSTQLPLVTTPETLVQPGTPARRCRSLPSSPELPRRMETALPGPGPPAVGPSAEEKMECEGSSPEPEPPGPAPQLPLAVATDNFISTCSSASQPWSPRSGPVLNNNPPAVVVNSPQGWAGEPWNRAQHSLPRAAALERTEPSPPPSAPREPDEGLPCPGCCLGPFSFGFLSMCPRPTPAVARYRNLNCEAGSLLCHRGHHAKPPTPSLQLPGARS

[38] = tested on: Mast/stem cell growth factor receptor Kit (Homo sapiens), P10721 [V559D]
Mast/stem cell growth factor receptor Kit (Homo sapiens), P10721 [V559D], sequence (P10721 whole entry V559D): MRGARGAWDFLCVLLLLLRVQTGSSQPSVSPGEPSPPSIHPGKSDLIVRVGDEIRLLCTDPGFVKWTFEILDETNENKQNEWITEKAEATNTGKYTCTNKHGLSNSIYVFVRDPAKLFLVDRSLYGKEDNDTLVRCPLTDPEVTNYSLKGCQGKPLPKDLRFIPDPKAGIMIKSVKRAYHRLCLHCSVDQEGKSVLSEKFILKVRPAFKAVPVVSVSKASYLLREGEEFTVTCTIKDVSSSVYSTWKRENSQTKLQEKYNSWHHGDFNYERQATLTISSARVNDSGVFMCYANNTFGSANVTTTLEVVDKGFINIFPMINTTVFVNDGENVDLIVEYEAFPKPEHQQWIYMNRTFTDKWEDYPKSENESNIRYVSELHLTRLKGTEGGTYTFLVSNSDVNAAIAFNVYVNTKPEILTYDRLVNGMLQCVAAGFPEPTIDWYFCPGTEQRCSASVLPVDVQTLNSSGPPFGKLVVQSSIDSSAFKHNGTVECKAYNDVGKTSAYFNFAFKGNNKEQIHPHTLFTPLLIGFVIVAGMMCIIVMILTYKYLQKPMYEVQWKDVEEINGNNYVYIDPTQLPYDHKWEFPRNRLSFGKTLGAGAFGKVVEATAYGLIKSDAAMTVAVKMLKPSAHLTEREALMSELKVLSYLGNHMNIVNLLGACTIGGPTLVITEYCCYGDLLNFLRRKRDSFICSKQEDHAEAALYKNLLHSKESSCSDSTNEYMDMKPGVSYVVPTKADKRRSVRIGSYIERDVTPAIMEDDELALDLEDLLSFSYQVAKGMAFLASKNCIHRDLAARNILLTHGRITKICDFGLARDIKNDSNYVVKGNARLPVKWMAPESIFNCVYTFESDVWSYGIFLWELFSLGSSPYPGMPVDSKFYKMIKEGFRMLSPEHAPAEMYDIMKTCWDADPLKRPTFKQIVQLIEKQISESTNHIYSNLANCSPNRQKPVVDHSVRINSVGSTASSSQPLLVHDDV

[39] = tested on: Tyrosine-protein kinase ABL1 (Homo sapiens), P00519 [T315I]
[40] = target: Ephrin type-B receptor 4 (Homo sapiens) (UniProt P54760)
[41] = target: Calcium/calmodulin-dependent protein kinase type 1G (Homo sapiens) (UniProt Q96NX5)
Calcium/calmodulin-dependent protein kinase type 1G (Homo sapiens), sequence (Q96NX5 whole entry): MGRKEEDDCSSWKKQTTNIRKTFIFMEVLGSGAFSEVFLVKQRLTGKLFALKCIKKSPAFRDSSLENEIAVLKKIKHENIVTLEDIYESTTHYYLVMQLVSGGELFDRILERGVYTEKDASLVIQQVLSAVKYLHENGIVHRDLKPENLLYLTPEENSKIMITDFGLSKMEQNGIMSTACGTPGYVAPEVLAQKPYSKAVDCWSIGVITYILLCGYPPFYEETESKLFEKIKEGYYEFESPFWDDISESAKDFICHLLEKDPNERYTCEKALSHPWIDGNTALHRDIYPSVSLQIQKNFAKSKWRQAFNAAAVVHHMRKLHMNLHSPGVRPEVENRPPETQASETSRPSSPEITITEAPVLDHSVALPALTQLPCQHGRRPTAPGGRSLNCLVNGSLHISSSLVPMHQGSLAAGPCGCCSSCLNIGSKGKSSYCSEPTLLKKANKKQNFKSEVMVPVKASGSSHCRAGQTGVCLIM

Angiopoietin-1 receptor = Angiopoietin-1 receptor (Homo sapiens, UniProt Q02763); assay: NanoBRET assay (SGC Frankfurt) with TEK
Angiopoietin-1 receptor, sequence (Q02763 whole entry): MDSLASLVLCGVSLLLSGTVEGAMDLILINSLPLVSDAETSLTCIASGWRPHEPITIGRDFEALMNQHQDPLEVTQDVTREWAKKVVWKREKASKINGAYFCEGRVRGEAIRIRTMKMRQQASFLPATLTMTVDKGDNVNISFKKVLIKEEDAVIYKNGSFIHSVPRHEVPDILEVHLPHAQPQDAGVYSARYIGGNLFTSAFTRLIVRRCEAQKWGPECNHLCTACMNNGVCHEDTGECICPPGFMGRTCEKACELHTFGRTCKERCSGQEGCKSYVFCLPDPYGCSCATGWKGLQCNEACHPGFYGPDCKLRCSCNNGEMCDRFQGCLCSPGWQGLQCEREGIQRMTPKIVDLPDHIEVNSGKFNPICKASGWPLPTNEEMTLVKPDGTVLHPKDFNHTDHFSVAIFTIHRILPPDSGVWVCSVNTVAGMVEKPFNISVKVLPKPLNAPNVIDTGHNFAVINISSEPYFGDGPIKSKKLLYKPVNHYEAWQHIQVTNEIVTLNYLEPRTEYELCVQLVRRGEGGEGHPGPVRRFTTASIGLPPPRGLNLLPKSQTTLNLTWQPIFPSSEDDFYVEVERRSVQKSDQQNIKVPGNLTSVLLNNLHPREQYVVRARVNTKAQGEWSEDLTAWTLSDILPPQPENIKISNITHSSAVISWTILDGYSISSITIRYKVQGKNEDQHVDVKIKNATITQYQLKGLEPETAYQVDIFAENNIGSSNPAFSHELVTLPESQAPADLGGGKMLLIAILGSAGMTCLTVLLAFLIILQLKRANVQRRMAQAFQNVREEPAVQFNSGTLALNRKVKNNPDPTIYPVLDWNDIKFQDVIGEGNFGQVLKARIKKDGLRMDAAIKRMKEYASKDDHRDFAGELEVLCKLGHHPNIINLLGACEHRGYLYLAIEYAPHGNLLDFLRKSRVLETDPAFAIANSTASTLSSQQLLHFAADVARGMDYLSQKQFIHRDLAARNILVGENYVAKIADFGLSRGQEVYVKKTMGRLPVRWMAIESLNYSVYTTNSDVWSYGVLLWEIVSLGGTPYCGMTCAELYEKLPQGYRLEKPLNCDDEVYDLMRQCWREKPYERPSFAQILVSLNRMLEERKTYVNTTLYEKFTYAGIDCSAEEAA

[42] = target: Delta-type opioid receptor (Homo sapiens, UniProt P41143); details: Compound concentration 10.0 uM
[43] = tested on: Tyrosine-protein kinase ABL1 (Homo sapiens), P00519 [Q252H]
[44] = target: Serine/threonine-protein kinase STK11 (Homo sapiens) (UniProt Q15831)
[45] = Compound concentration 1000.0 nM
[46] = Compound concentration 100.0 nM

Serine/threonine-protein kinase PknB (Mycobacterium tuberculosis), sequence (P9WI81 whole entry): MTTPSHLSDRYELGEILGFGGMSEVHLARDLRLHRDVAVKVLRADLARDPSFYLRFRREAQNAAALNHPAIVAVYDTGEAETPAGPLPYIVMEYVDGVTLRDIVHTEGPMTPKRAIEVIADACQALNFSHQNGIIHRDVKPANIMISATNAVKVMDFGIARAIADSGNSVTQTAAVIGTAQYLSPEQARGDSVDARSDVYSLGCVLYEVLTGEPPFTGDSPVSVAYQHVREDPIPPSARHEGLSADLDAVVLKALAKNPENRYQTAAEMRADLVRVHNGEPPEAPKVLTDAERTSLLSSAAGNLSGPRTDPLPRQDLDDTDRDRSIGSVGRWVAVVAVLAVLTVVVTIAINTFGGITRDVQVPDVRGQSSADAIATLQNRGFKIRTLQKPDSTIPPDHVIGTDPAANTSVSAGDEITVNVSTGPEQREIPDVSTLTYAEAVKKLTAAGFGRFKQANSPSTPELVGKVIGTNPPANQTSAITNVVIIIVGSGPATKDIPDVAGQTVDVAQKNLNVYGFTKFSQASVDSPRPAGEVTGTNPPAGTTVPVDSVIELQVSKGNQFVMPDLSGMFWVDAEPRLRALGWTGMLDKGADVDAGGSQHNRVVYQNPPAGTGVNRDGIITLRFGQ

SMILES: Cc1cc(NC(=O)c2cccc(S(F)(F)(F)(F)F)c2)cc(-n2ccn3nc(-c4cccnc4)cc23)c1 [BAY-309]
- residual activity [1, 45]: 63.7%
- residual activity [2, 45]: 75.2%
- residual activity [3, 45]: 100%
- residual activity [4, 45]: 100%
- residual activity [5, 45]: 100%
- residual activity [6, 45]: 84.9%
- residual activity [7, 45]: 100%
- residual activity [8, 45]: 85.4%
- residual activity [9, 45]: 100%
- residual activity [10, 45]: 84.1%
- residual activity [11, 45]: 97.1%
- residual activity [12, 45]: 83.2%
- residual activity [13, 45]: 100%
- residual activity [14, 45]: 88.6%
- inhibition [15]: -4.71%
- residual activity [16, 45]: 44.8%
- residual activity [17, 45]: 100%
- residual activity [18, 45]: 100%
- residual activity [19, 45]: 100%
- residual activity [20, 45]: 100%
- residual activity [21, 45]: 100%
- residual activity [22, 45]: 100%
- residual activity [23, 45]: 85.3%
- residual activity [24, 45]: 51.3%
- residual activity [25, 45]: 100%
- inhibition [26]: 19.3%
- residual activity [27, 45]: 57.5%
- residual activity [28, 45]: 96.9%
- inhibition [29]: 64.8%
- residual activity [30, 45]: 37.6%
- residual activity [31, 45]: 68.1%
- inhibition [32]: 6.71%
- residual activity [33, 45]: 100%
- residual activity [34, 45]: 90.9%
- residual activity [35, 45]: 100%
- residual activity [36, 45]: 76.9%
- residual activity [37, 45]: 91.7%
- residual activity [38, 45]: 73.5%
- residual activity [39, 45]: 60.8%
- residual activity [40, 45]: 100%
- residual activity [41, 45]: 100%
- EC50 (Angiopoietin-1 receptor): 3300 nM (not active)
- IC50 (Angiopoietin-1 receptor): 1100 nM (not active)
- inhibition [42]: 58.5%
- residual activity [43, 45]: 100%
- residual activity [44, 45]: 100%

SMILES: Cc1cc(C)c(-n2ccn3nc(-c4cccnc4)cc23)cc1NC(=O)c1cc(C#N)cc(S(F)(F)(F)(F)F)c1 [BAY-826]
- residual activity [1, 46]: 62.5%
- residual activity [2, 46]: 100%
- residual activity [3, 46]: 83.4%
- residual activity [4, 46]: 82.7%
- residual activity [5, 46]: 87.3%
- residual activity [6, 46]: 75.9%
- residual activity [7, 46]: 84.9%
- residual activity [8, 46]: 85.9%
- residual activity [9, 46]: 89.1%
- residual activity [10, 46]: 90.7%
- residual activity [11, 46]: 85.4%
- residual activity [12, 46]: 100%
- residual activity [13, 46]: 95.6%
- residual activity [14, 46]: 84.5%
- inhibition [15]: 9.57%
- residual activity [16, 46]: 72%
- residual activity [17, 46]: 53.1%
- residual activity [18, 46]: 74.9%
- residual activity [19, 46]: 100%
- residual activity [20, 46]: 91.4%
- residual activity [21, 46]: 100%
- residual activity [22, 46]: 99.6%
- residual activity [23, 46]: 81.8%
- residual activity [24, 46]: 100%
- residual activity [25, 46]: 91.8%
- inhibition [26]: -4.84%
- residual activity [27, 46]: 86.1%
- residual activity [28, 46]: 64.1%
- inhibition [29]: 89.4%
- residual activity [30, 46]: 100%
- residual activity [31, 46]: 86.6%
- inhibition [32]: -3.4%
- residual activity [33, 46]: 94.9%
- residual activity [34, 46]: 82.2%
- residual activity [35, 46]: 77.1%
- residual activity [36, 46]: 66.1%
- residual activity [37, 46]: 85.1%
- residual activity [38, 46]: 45.6%
- residual activity [39, 46]: 83.8%
- residual activity [40, 46]: 99.6%
- residual activity [41, 46]: 100%
- EC50 (Angiopoietin-1 receptor): 1.7 nM (active)
- IC50 (Angiopoietin-1 receptor): 0.7 nM (active)
- inhibition [42]: 18.7%
- residual activity [43, 46]: 72.9%
- residual activity [44, 46]: 75.9%
